# Data from patent US9636336B2, “Aminoester derivatives” (CHIESI FARMACEUTICI S.p.A., priority 2015, dated 2017).
# Like-named read-outs stand apart in the source and are kept apart here.
# Experiments:
# [1] = target: Human M3 receptor membranes (Homo sapiens (Human), UniProt P20309); test: M3 Receptor radioligand binding assay
# Procedure: M3 Receptor Radioligand Binding Assay:
# The assay is carried out in 96-well polypropylene plates in a volume of 250 μl. […] The final assay concentration of DMSO is 0.5% (v/v). The plates are sealed and incubated for 2 h at room temperature on an orbital shaker (slow speed). Membranes are harvested onto 96-well unifilter GF/C filter plates pre-treated with 0.5% polyethyleneimine (v/v), using a filter manifold, washed four times with 200 μl of assay buffer. The plates are dried before addition of 50 μl of microscint-0, sealed then read in a Trilux Microbeta scintillation counter. IC50 values are determined from competition curves using a non-linear curve fitting program. Ki values are calculated from IC50 values by the Cheng and Prusoff equation.
# Human recombinant PDE4B2 = Human recombinant PDE4B2 (Homo sapiens (Human), UniProt Q07343); test: PDE4B2 HTRF assay; type: biochemical
# Chain of Human recombinant PDE4B2 (Q07343 other isoform, or with tags, fused parts or gaps): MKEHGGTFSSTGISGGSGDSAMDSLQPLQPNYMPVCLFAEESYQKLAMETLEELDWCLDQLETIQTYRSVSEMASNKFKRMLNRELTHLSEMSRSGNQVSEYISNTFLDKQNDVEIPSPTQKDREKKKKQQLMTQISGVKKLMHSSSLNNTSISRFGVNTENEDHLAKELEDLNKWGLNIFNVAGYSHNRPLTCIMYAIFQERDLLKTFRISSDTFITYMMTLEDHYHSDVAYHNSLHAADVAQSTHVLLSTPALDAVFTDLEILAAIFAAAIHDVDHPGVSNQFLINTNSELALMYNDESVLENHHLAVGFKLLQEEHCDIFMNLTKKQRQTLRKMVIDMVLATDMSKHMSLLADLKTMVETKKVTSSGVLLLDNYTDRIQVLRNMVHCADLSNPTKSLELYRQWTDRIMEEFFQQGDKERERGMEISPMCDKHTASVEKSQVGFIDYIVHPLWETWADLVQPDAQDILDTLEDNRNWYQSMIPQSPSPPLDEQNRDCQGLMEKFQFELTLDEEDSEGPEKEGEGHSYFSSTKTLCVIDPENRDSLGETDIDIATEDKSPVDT
# Procedure: PDE4B2 activity is detected using the LANCE Ultra cAMP homogeneous time resolved fluorescence resonance energy transfer (TR-FRET) assay from Perkin Elmer. The assay is based on the competition between the europium (Eu) chelate-labeled cAMP tracer and sample cAMP for binding sites on cAMP-specific monoclonal antibodies (mAb) labelled with the ULight™ dye. The assay is carried out in 384-well low volume plates in a volume of 10 μl. Human recombinant PDE4B2 (80 pM) is incubated for 2 h with 3 nM cAMP in buffer containing 1×HBSS, 5 mM HEPES, 3 mM MgCl2, 0.1% BSA, pH 7.4 with or without test compounds. The enzymatic reactions are efficiently stopped by the addition of 500 μM IBMX present in the combined Stop/Detection buffer containing europium (Eu) chelate-labeled cAMP tracer and cAMP-specific monoclonal antibodies (mAb) labelled with the ULight™ dye. […] IC50 values are determined from competition curves using a non-linear curve fitting program.
# [2] = M3 Receptor radioligand binding assay, read-out: M3 IC50 activity
# [3] = PDE4B2 HTRF assay, read-out: PDE4B2 IC50 activity
# Chain of Human M3 receptor membranes (P20309 whole entry): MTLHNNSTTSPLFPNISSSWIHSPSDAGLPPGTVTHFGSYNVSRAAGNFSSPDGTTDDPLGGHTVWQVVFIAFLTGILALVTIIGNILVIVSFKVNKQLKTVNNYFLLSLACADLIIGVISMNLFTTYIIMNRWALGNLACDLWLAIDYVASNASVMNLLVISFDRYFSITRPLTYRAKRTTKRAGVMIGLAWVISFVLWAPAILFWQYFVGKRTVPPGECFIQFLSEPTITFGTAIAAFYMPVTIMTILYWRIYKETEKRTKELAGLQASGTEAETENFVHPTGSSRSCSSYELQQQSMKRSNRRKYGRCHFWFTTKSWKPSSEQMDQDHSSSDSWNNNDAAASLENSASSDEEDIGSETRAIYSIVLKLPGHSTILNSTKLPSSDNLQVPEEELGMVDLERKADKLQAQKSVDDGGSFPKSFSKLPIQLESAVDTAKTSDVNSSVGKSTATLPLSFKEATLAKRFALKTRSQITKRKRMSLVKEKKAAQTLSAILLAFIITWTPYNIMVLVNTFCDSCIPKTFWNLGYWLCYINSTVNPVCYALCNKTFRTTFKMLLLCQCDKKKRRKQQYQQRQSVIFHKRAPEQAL
Structure (SMILES),"IC50 [1, 2]",IC50 (Human recombinant PDE4B2; [3]),IC50 (Human recombinant PDE4B2; read-out: PDE4B2 IC50 activity),IC50 [1],IC50 (Human recombinant PDE4B2)
"COc1ccc([C@H](Cc2c(Cl)c[n+]([O-])cc2Cl)OC(=O)c2ccc(CNC(C(=O)OCC3CCN(C(C)C)CC3)c3ccccc3)s2)cc1OC (single isomer, unassigned) [Example 42]",10 to 100 nM,1 to 10 nM,–,–,–
"COc1ccc([C@H](Cc2c(Cl)c[n+]([O-])cc2Cl)OC(=O)c2ccc(CNC(C(=O)OCC3CCCCN3C)c3ccccc3)s2)cc1OC (stereo partly drawn) [Example 31, [(1S)-2-(3,5-dichloro-1-oxido-pyridin-1-ium-4-yl)-1-(3,4-dimethoxyphenyl)ethyl] 5-[[[2-[(1-methyl-2-piperidyl)methoxy]-2-oxo-1-phenyl-ethyl]amino]methyl]thiophene-2-carboxylate]",10 to 100 nM,1 to 10 nM,–,–,–
"COc1ccc([C@H](Cc2c(Cl)c[n+]([O-])cc2Cl)OC(=O)c2ccc(CNC(C(=O)OC[C@H]3CCN(C)C3)c3ccccc3)s2)cc1OC (stereo partly drawn) [Example 18, [(1S)-2-(3,5-dichloro-1-oxido-pyridin-1-ium-4-yl)-1-(3,4-dimethoxyphenyl)ethyl] 5-[[[2-[[(3S)-1-methylpyrrolidin-3-yl]methoxy]-2-oxo-1-phenyl-ethyl]amino]methyl]thiophene-2-carboxylate]",1 to 10 nM,1 to 10 nM,–,–,–
"COc1ccc([C@H](Cc2c(Cl)c[n+]([O-])cc2Cl)OC(=O)c2ccc(CNC(C(=O)OC[C@@H]3CCN(C)C3)c3ccccc3)s2)cc1OC (stereo partly drawn) [Example 17, [(1S)-2-(3,5-dichloro-1-oxido-pyridin-1-ium-4-yl)-1-(3,4-dimethoxyphenyl)ethyl] 5-[[[2-[[(3R)-1-methylpyrrolidin-3-yl]methoxy]-2-oxo-1-phenyl-ethyl]amino]methyl]thiophene-2-carboxylate]",1 to 10 nM,1 to 10 nM,–,–,–
"COc1ccc([C@H](Cc2c(Cl)c[n+]([O-])cc2Cl)OC(=O)c2ccc(CNC(C(=O)OC[C@@H]3CCCN(C)C3)c3ccccc3)s2)cc1OC (stereo partly drawn) [Example 49, [(1S)-2-(3,5-dichloro-1-oxido-pyridin-1-ium-4-yl)-1-(3,4-dimethoxyphenyl)ethyl]5-[[[2-[[(3R)-1-methyl-3-piperidyl]methoxy]-2-oxo-1-phenyl-ethyl]amino]methyl]thiophene-2-carboxylate]",10 to 100 nM,1 to 10 nM,–,–,–
"COc1ccc([C@H](Cc2c(Cl)c[n+]([O-])cc2Cl)OC(=O)c2ccc(CNC(C(=O)OCC3CCN(C)CC3)C3CCCCC3)s2)cc1OC (stereo partly drawn) [Example 9, [(1S)-2-(3,5-dichloro-1-oxido-pyridin-1-ium-4-yl)-1-(3,4-dimethoxyphenyl)ethyl]5-[[[1-cyclohexyl-2-[(1-methyl-4-piperidyl)methoxy]-2-oxo-ethyl]amino]methyl]thiophene-2-carboxylate]",10 to 100 nM,–,1 to 10 nM,–,–
"COc1ccc(C(Cc2c(Cl)c[n+]([O-])cc2Cl)OC(=O)c2ccc(CNC(C(=O)OCC3CCN(C)CC3)c3ccccc3)s2)cc1OC1CCCC1 (centres unmarked) [Example 5, [1-[3-(cyclopentoxy)-4-methoxy-phenyl]-2-(3,5-dichloro-1-oxido-pyridin-1-ium-4-yl)ethyl] 5-[[[2-[(1-methyl-4-piperidyl)methoxy]-2-oxo-1-phenyl-ethyl]amino]methyl]thiophene-2-carboxylate]",1 to 10 nM,1 to 10 nM,–,–,–
"COc1ccc([C@H](Cc2c(Cl)c[n+]([O-])cc2Cl)OC(=O)c2ccc(CNC(C(=O)OC[C@@H]3CN(C)CCN3C)c3ccccc3)s2)cc1OC (stereo partly drawn) [Example 32, [(1S)-2-(3,5-dichloro-1-oxido-pyridin-1-ium-4-yl)-1-(3,4-dimethoxyphenyl)ethyl] 5-[[[2-[[(2S)-1,4-dimethylpiperazin-2-yl]methoxy]-2-oxo-1-phenyl-ethyl]amino]methyl]thiophene-2-carboxylate]",10 to 100 nM,1 to 10 nM,–,–,–
"COCCOc1cc([C@H](Cc2c(Cl)c[n+]([O-])cc2Cl)OC(=O)c2ccc(CNC(C(=O)OCC3CCN(C)CC3)c3ccccc3)s2)ccc1OC(F)F (stereo partly drawn) [Example 113, [(1S)-2-(3,5-dichloro-1-oxido-pyridin-1-ium-4-yl)-1-[4-(difluoromethoxy)-3-(2-methoxyethoxy)phenyl]ethyl] 5-[[[2-[(1-methyl-4-piperidyl)methoxy]-2-oxo-1-phenyl-ethyl]amino]methyl]thiophene-2-carboxylate]",1 to 10 nM,1 to 10 nM,–,–,–
"COc1ccc([C@H](Cc2c(Cl)c[n+]([O-])cc2Cl)OC(=O)c2ccc(CNCC(O)(C(=O)OCC3CCN(C)CC3)c3cccs3)s2)cc1OC (stereo partly drawn) [Example 1, [(1S)-2-(3,5-dichloro-1-oxido-pyridin-1-ium-4-yl)-1-(3,4-dimethoxyphenyl)ethyl]5-[[[2-hydroxy-3-[(1-methyl-4-piperidyl)methoxy]-3-oxo-2-(2-thienyl)propyl]amino]methyl]-thiophene-2-carboxylate]",–,–,–,10 to 100 nM,1 to 10 nM
"COc1ccc([C@H](Cc2c(Cl)c[n+]([O-])cc2Cl)OC(=O)c2ccc(CNC(CO)(C(=O)OCC34CCN(CC3)CC4)c3ccccc3)s2)cc1OC (stereo partly drawn) [Example 117, [(1S)-2-(3,5-dichloro-1-oxido-pyridin-1-ium-4-yl)-1-(3,4-dimethoxyphenyl)ethyl]5-[[[1-(hydroxymethyl)-2-oxo-1-phenyl-2-(quinuclidin-4-ylmethoxy)ethyl]amino]methyl]thiophene-2-carboxylate]",< 1 nM,1 to 10 nM,–,–,–
"COc1ccc([C@H](Cc2c(Cl)c[n+]([O-])cc2Cl)OC(=O)c2ccc(CNC(C(=O)OC[C@H]3CN(C)CCN3C)c3ccccc3)s2)cc1OC (stereo partly drawn) [Example 29, [(1S)-2-(3,5-dichloro-1-oxido-pyridin-1-ium-4-yl)-1-(3,4-dimethoxyphenyl)ethyl] 5-[[[2-[[(2R)-1,4-dimethylpiperazin-2-yl]methoxy]-2-oxo-1-phenyl-ethyl]amino]methyl]thiophene-2-carboxylate]",10 to 100 nM,1 to 10 nM,–,–,–
"COc1ccc([C@H](Cc2c(Cl)c[n+]([O-])cc2Cl)OC(=O)c2ccc(CNC(C(=O)OCC3C[C@H]4CC[C@@H](C3)N4C)c3ccccc3)s2)cc1OC (stereo partly drawn) [Example 114, [(1S)-2-(3,5-dichloro-1-oxido-pyridin-1-ium-4-yl)-1-(3,4-dimethoxyphenyl)ethyl] 5-[[[2-[[(1R,5S)-8-methyl-8-azabicyclo[3.2.1]octan-3-yl]methoxy]-2-oxo-1-phenyl-ethyl]amino]methyl]thiophene-2-carboxylate]",–,–,–,10 to 100 nM,1 to 10 nM
"COc1ccc([C@H](Cc2c(Cl)c[n+]([O-])cc2Cl)OC(=O)c2ccc(CNC(C(=O)OC[C@@H]3CCCN(C)C3)c3ccccc3)s2)cc1OC (stereo partly drawn) [Example 14, [(1S)-2-(3,5-dichloro-1-oxido-pyridin-1-ium-4-yl)-1-(3,4-dimethoxyphenyl)ethyl]5-[[[2-[[(3R)-1-methyl-3-piperidyl]methoxy]-2-oxo-1-phenyl-ethyl]amino]methyl]thiophene-2-carboxylate]",1 to 10 nM,1 to 10 nM,–,–,–
"CN1CCC(COC(=O)C(NCc2ccc(C(=O)O[C@@H](Cc3c(Cl)c[n+]([O-])cc3Cl)c3ccc(OC(F)F)c(OCC4CC4)c3)s2)c2cccc(O)c2)CC1 (mixture of isomers) [Example 46, [(1S)-1-[3-(cyclopropylmethoxy)-4-(difluoromethoxy)phenyl]-2-(3,5-dichloro-1-oxido-pyridin-1-ium-4-yl)ethyl]5-[[[1-(3-hydroxyphenyl)-2-[(1-methyl-4-piperidyl)methoxy]-2-oxo-ethyl]amino]methyl]thiophene-2-carboxylate]",1 to 10 nM,1 to 10 nM,–,–,–
"COc1ccc([C@H](Cc2c(Cl)c[n+]([O-])cc2Cl)OC(=O)c2ccc(CNCC(C(=O)OCC3CCN(C)CC3)c3ccccc3)s2)cc1OC (stereo partly drawn) [Example 7, [(1S)-2-(3,5-dichloro-1-oxido-pyridin-1-ium-4-yl)-1-(3,4-dimethoxyphenyl)ethyl]5-[[[3-[(1-methyl-4-piperidyl)methoxy]-3-oxo-2-phenyl-propyl]amino]methyl]thiophene-2-carboxylate]",10 to 100 nM,1 to 10 nM,–,–,–
